In patent publication US8207347B2, “Pyridone derivatives as NK3 antagonists” (H. Lundbeck A/S, priority 2009, dated 2012):

Tested on: not given
Assay: not given
Settings: Am. J. Psychiatry, 161, 2004, 975-984; cited from earlier work

Structure (SMILES) | effect in clinical trials, in particular on positive symptoms of psychosis
CC(=O)N(C)C1(c2ccccc2)CCN(CCC[C@]2(c3ccc(Cl)c(Cl)c3)CCCN(C(=O)c3ccccc3)C2)CC1 [Osanetant, osanetant] | superior to placebo

Same assay, conditions: schizophrenics; Curr. Opion. Invest. Drug, 6, 717-721, 2005; cited from earlier work

Structure (SMILES) | effect on cognitive behaviour in clinical trials
CC[C@H](NC(=O)c1c(O)c(-c2ccccc2)nc2ccccc12)c1ccccc1 [talnetant] | ameliorate the cognitive behaviour of schizophrenics

Tested on: not given
Assay: not given
Settings: Nature reviews, 4, 967-975, 2005; cited from earlier work

Structure (SMILES) | bioavailability | blood-brain barrier penetration | clearance | solubility
CC(=O)N(C)C1(c2ccccc2)CCN(CCC[C@]2(c3ccc(Cl)c(Cl)c3)CCCN(C(=O)c3ccccc3)C2)CC1 [Osanetant, osanetant] | poor | poor | relatively high | poor
CC[C@H](NC(=O)c1c(O)c(-c2ccccc2)nc2ccccc12)c1ccccc1 [talnetant] | poor | poor | relatively high | poor

Target: T1, human NK3 receptor (Homo sapiens, UniProt P29371)
T1 construct: expressed in transfected cells
T1 sequence (P29371 1-465): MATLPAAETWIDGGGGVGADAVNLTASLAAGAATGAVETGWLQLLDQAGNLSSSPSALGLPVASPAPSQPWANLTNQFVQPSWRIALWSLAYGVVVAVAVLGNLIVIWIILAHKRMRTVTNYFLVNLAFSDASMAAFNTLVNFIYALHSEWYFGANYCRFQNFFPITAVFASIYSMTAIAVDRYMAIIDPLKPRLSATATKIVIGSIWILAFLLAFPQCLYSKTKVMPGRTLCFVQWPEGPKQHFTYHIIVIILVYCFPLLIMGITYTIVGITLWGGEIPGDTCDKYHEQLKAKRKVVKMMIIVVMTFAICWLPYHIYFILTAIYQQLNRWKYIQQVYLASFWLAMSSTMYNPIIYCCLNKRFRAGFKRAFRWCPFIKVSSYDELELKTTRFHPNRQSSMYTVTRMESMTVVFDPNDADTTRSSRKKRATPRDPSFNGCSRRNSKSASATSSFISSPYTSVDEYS
Assay: NK3 receptor binding assay (filter-based competition binding, 3H-AE93103)
Settings: BHK cell membranes expressing human NK3 receptor; Ki from IC50 by Cheng Prusoff equation; read-out: Affinity (Ki/nM)
Experimental: BHK cells stably expressing the human NK3 receptor were seeded in harvesting plates in Dulbeccos MEM containing GlutaMax (862 mg/l), 1 mM sodium pyruvate, 10% fetal calf serum, 1% Pen/Strep, 1 mg/ml G418 and were grown at 34° C. in a humidified atmosphere containing 10% CO2. To increase receptor expression, 10 μM trichotatin A was added to the media 24 hours before harvest of the cells at a confluency of app 90%. Prior to the harvesting, the cells were washed twice with PBS without Mg^2+ of Ca^2+ and subsequently scrapped of in 10 ml PBS pr harvesting plate. The cells suspension were centrifuged at 1500×G in three minutes before resuspension in 15 mM Tris-HCl buffer pH 7.5 containing 2 mM MgCl2; 0.3 mM EDTA and 1 mM EGTA (buffer A). The cell suspension was homogenised and subsequently centrifuged at 40000×G in 30 minutes. The membrane-pellet was resuspended in buffer A containing 250 mM sucrose, aliquoted and stored at −80° C.
The assay is performed as a filter-based competition-binding in a 50 mM Tris pH 7.4 assay buffer containing 120 mM NaCl and 3 mM MnCl2. App 0.05 nM ^3H-AE93103 was mixed with test compounds before addition of 0.15 μg of a homogenised NK3 membrane preparation in a total volume of 300 μl. The assay plate is incubated for 90 min at RT before content of the wells is transferred using a cell-harvester to GF/C filter plates, which has been pretreated with 0.1% PEI. The filter is washed 3 times with 1 ml an ice-cold 50 mM Tris buffer, pH 7.4. The filter is dried and added scintillation liquid before the plate is counted in a topcounter 5 minutes pr well.
The total binding, which comprised less than 10% of added radioligand, was defined using assay buffer whereas the non-specific binding was defined in the presence of 1 μM SR142801. The non-specific binding constituted ˜10% of the total binding.
Data points are expressed in percent of the specific binding of ^3H-AE93103 and the […] (concentration causing 50% inhibition of ^3H-AE93103 specific binding) are determined by non-linear regression analysis using a sigmoidal variable slope curve fitting.

Ki [nM] | Structure (SMILES)
52 | Cc1c(C(=O)N[C@H](c2cccc(F)c2)C2CCC2)c(C)n(-c2ccccc2)c(=O)c1Br [Example 2a, 5-Bromo-2,4-dimethyl-6-oxo-1-phenyl-1,6-dihydro-pyridine-3-carboxylic acid [(S)-cyclobutyl-(3-fluoro-phenyl)-methyl]-amide]
24 | CCNn1c(C)c(C(=O)N[C@H](c2cccc(F)c2)C2CCC2)c(C)c(Br)c1=O [Example 2c, 5-Bromo-1-ethylamino-2,4-dimethyl-6-oxo-1,6-dihydro-pyridine-3-carboxylic acid [(S)-cyclobutyl-(3-fluoro-phenyl)-methyl]-amide]
30 | CCCn1c(C)c(C(=O)N[C@H](c2cccc(F)c2)C2CCC2)c(C)c(Br)c1=O [Example 2d, 5-Bromo-2,4-dimethyl-6-oxo-1-propyl-1,6-dihydro-pyridine-3-carboxylic acid [(S)-cyclobutyl-(3-fluoro-phenyl)-methyl]-amide]
50 | CCc1c(C(=O)N[C@H](c2cccc(F)c2)C2CCC2)c(C)n(-c2ccccc2)c(=O)c1Br [Example 2e, 5-Bromo-4-ethyl-2-methyl-6-oxo-1-phenyl-1,6-dihydro-pyridine-3-carboxylic acid [(S)-cyclobutyl-(3-fluoro-phenyl)-methyl]-amide]
90 | CCCc1c(C(=O)N[C@H](c2cccc(F)c2)C2CCC2)c(C)n(-c2ccccc2)c(=O)c1Br [Example 2f, 5-Bromo-2-methyl-6-oxo-1-phenyl-4-propyl-1,6-dihydro-pyridine-3-carboxylic acid [(S)-cyclobutyl-(3-fluoro-phenyl)-methyl]-amide]
7 | Cc1c(C(=O)N[C@H](c2cccc(F)c2)C2CCC2)c(C(F)(F)F)c(Br)c(=O)n1-c1ccccc1 [Example 2g, 5-Bromo-2-methyl-6-oxo-1-phenyl-4-trifluoromethyl-1,6-dihydro-pyridine-3-carboxylic acid [(S)-cyclobutyl-(3-fluoro-phenyl)-methyl]-amide]
24 | Cc1c(C(=O)N[C@H](c2cccc(F)c2)C2CCC2)c(C(F)(F)F)c(Cl)c(=O)n1-c1ccccc1 [Example 2m, 5-Chloro-2-methyl-6-oxo-1-phenyl-4-trifluoromethyl-1,6-dihydro-pyridine-3-carboxylic acid [(S)-cyclobutyl-(3-fluoro-phenyl)-methyl]-amide]
22 | CCCNn1c(C)c(C(=O)N[C@H](c2cccc(F)c2)C2CCC2)c(C)c(C#N)c1=O [Example 3b, 5-Cyano-2,4-dimethyl-6-oxo-1-propylamino-1,6-dihydro-pyridine-3-carboxylic acid [(S)-cyclobutyl-(3-fluoro-phenyl)-methyl]-amide]
34 | Cc1c(C(=O)N[C@H](c2cccc(F)c2)C2CCC2)c(C)n(Cc2ncco2)c(=O)c1C#N [Example 3d, 5-Cyano-2,4-dimethyl-1-oxazol-2-ylmethyl-6-oxo-1,6-dihydro-pyridine-3-carboxylic acid [(S)-cyclobutyl-(3-fluoro-phenyl)-methyl]-amide]
240 | C#Cc1c(C)c(C(=O)N[C@H](c2cccc(F)c2)C2CCC2)c(C)n(-c2ccccc2)c1=O [Example 3e, 5-Ethynyl-2,4-dimethyl-6-oxo-1-phenyl-1,6-dihydro-pyridine-3-carboxylic acid [(S)-cyclobutyl-(3-fluoro-phenyl)-methyl]-amide]

More lines, now with the values behind:

Structure (SMILES) | Ki [nM]
CCCn1c(C)c(C(=O)N[C@H](c2cc(F)cc(F)c2)C2CCC2)c(C)c(Br)c1=O [Example 1ak, 5-Bromo-2,4-dimethyl-6-oxo-1-propyl-1,6-dihydro-pyridine-3-carboxylic acid [(S)-cyclobutyl-(3,5-difluoro-phenyl)-methyl]-amide] | 49
CCCNn1c(C)c(C(=O)N[C@H](c2ccccc2)C2CCC2)c(C)c(Br)c1=O [Example 1i, 5-Bromo-2,4-dimethyl-6-oxo-1-propylamino-1,6-dihydro-pyridine-3-carboxylic acid ((S)-cyclobutyl-phenyl-methyl)-amide] | 16
CCCn1c(C)c(C(=O)N[C@H](c2ccccc2Cl)C2CC2)c(C)c(Br)c1=O [Example 1s, 5-Bromo-2,4-dimethyl-6-oxo-1-propyl-1,6-dihydro-pyridine-3-carboxylic acid [(S)-(2-chloro-phenyl)-cyclopropyl-methyl]-amide] | 67
CCCn1c(C)c(C(=O)N[C@H](c2ccccc2)C2CCC2)c(C)c(Br)c1=O [Example 1z, 5-Bromo-2,4-dimethyl-6-oxo-1-propyl-1,6-dihydro-pyridine-3-carboxylic acid ((S)-cyclobutyl-phenyl-methyl)-amide] | 36
